In ChEMBL document CHEMBL4421722, “Inhibitors of protein prenyltransferases” (2013):
Calls of active or inactive are those of the source. The rule behind the calls is not given here.

Columns and labels:
PANC-1 [1] = assay: Antitumor activity against human PANC1 cells xenografted in SCID mouse assessed as inhibition of tumor growth at 1.16 mg/kg, ip dosed 3 times per week and measured every 2 weeks up to day 14 to day 47; assay type: functional, organism-based
[2] = Toxicity in SCID mouse xenografted with human PANC1 cells assessed as effect on cholesterol level at 1.16 mg/kg, ip dosed 3 times per week and measured every 2 weeks up to day 14 to day 47; assay type: organism-based; details: in vivo, 336 h
[3] = Toxicity in SCID mouse xenografted with human PANC1 cells assessed as effect on PLT level at 1.16 mg/kg, ip dosed 3 times per week and measured every 2 weeks up to day 14 to day 47; assay type: organism-based; details: in vivo, 336 h
Mus musculus = species on record: Mus musculus; assay: Inhibition of geranylgeranyltransferase type I in mouse NIH/3T3 cells transfected with p21WAF1/CIP1 promoter-Luc assessed as induction of p21 CIP1/WAF1 expression by luciferase reporter gene assay; assay type: cell-based
Jurkat = assay: Antiproliferative activity against human Jurkat cells assessed as inhibition of cell proliferation incubated for 72 hrs by CCK8 assay; assay type: functional, cell-based
[4] = Toxicity in SCID mouse xenografted with human PANC1 cells assessed as effect on NE level at 1.16 mg/kg, ip dosed 3 times per week and measured every 2 weeks up to day 14 to day 47; assay type: organism-based; details: in vivo, 336 h
[5] = Toxicity in SCID mouse xenografted with human PANC1 cells assessed as effect on GLU level at 1.16 mg/kg, ip dosed 3 times per week and measured every 2 weeks up to day 14 to day 47; assay type: organism-based; details: in vivo, 336 h
[6] = Toxicity in SCID mouse xenografted with human PANC1 cells assessed as effect on WBC level at 1.16 mg/kg, ip dosed 3 times per week and measured every 2 weeks up to day 14 to day 47; assay type: organism-based; details: in vivo, 336 h
[7] = Toxicity in SCID mouse xenografted with human PANC1 cells assessed as effect on ALP level at 1.16 mg/kg, ip dosed 3 times per week and measured every 2 weeks up to day 14 to day 47; assay type: organism-based; details: in vivo, 336 h
[8] = Toxicity in SCID mouse xenografted with human PANC1 cells assessed as effect on LY level at 1.16 mg/kg, ip dosed 3 times per week and measured every 2 weeks up to day 14 to day 47; assay type: organism-based; details: in vivo, 336 h
K562 [9] = assay: Induction of cell cycle arrest in human K562 cells assessed as accumulation at G1 phase incubated for 48 hrs by flow cytometry; assay type: functional, cell-based
[10] = Toxicity in SCID mouse xenografted with human PANC1 cells assessed as effect on CA level at 1.16 mg/kg, ip dosed 3 times per week and measured every 2 weeks up to day 14 to day 47; assay type: organism-based; details: in vivo, 336 h
[11] = target: T1, Geranylgeranyl transferase type-2 (Homo sapiens) (UniProt P53611+Q92696); assay: Inhibition of RabGGTase (unknown origin) at 100000 nM using YPTI as substrate protein and [3H]geranylgeranyl pyrophosphate incubated for 20 mins by scintillation counting assay; assay type: protein-complex assay
[12] = Toxicity in SCID mouse xenografted with human PANC1 cells assessed as effect on AST […] level at 1.16 mg/kg, ip dosed 3 times per week and measured every 2 weeks up to day 14 to day 47; assay type: organism-based; details: in vivo, 336 h
MCF7 = assay: Antiproliferative activity against human MCF7 cells assessed as inhibition of cell proliferation incubated for 6 days by CCK8 assay; assay type: functional, cell-based
PANC-1 [13] = assay: Antitumor activity against human PANC1 cells xenografted in SCID mouse assessed as inhibition of tumor growth at 1.16 mg/kg, ip dosed once time per week and measured every 2 weeks; assay type: functional, organism-based
[14] = target: Protein farnesyltransferase (Rattus norvegicus) (UniProt Q04631+Q02293); assay: Inhibition of rat recombinant FTase alpha/beta expressed in Escherichia coli at 100000 nM using K-Ras4B as a substrate as and [3H]farnesyl pyrophosphate incubated for 30 mins by scintillation counting assay
[15] = Clearance in SCID mouse xenografted with human PANC1 cells at 1.16 mg/kg, ip dosed once or 6 times per week; assay type: ADME, organism-based; details: in vivo
[16] = target: T1, Geranylgeranyl transferase type-2 (Homo sapiens); assay: Inhibition of RabGGTase in HEK293 cells assessed as reduction in geranylgeranylation of Rab5b protein at 5 to 10 uM incubated for 48 hrs by SDS-PAGE and immunoblot analysis; assay type: cell-based
[17] = Toxicity in SCID mouse xenografted with human PANC1 cells assessed as effect on RBC level at 1.16 mg/kg, ip dosed 3 times per week and measured every 2 weeks up to day 14 to day 47; assay type: organism-based; details: in vivo, 336 h
[18] = Toxicity in SCID mouse xenografted with human PANC1 cells assessed as effect on ALB level at 1.16 mg/kg, ip dosed 3 times per week and measured every 2 weeks up to day 14 to day 47; assay type: organism-based; details: in vivo, 336 h
PANC-1 [19] = assay: Antitumor activity against human PANC1 cells xenografted in SCID mouse assessed as inhibition of tumor growth at 1.16 mg/kg, ip dosed six times per week and measured every 2 weeks; assay type: functional, organism-based
K562 [20] = assay: Induction of cell cycle arrest in human K562 cells assessed as reduction in accumulation at S phase incubated for 48 hrs by flow cytometry; assay type: functional, cell-based
[21] = Inhibition of rat recombinant geranylgeranyltransferase type I expressed in Escherichia coli assessed as reduction in geranylgeranylation of RhoA incubated for 30 mins in presence of [3H]GGPP by scintillation counting assay relative to control
[22] = Toxicity in SCID mouse xenografted with human PANC1 cells assessed as effect on creatinine level at 1.16 mg/kg, ip dosed 3 times per week and measured every 2 weeks up to day 14 to day 47; assay type: organism-based; details: in vivo, 336 h
[23] = Toxicity in SCID mouse xenografted with human PANC1 cells assessed as effect on ALT […] level at 1.16 mg/kg, ip dosed 3 times per week and measured every 2 weeks up to day 14 to day 47; assay type: organism-based; details: in vivo, 336 h
HEK293 = assay: Inhibition of geranylgeranyltransferase type I in HEK293 cells expressing Myc-HA-tagged Rheb-WT assessed as effect on unprenylated Rap1 accumulation at 2.5 uM incubated for 48 hrs by SDS-PAGE and immunoblot analysis; assay type: cell-based; details: Homo sapiens
[24] = target: Protein farnesyltransferase (Homo sapiens) (UniProt P49354+P49356); assay: Inhibition of FTase in HEK293 cells assessed as reduction in H-ras farnesylation at 2.5 to 10 uM incubated for 48 hrs by SDS-PAGE and immunoblot analysis; assay type: cell-based
[25] = Toxicity in SCID mouse xenografted with human PANC1 cells assessed as effect on CK level at 1.16 mg/kg, ip dosed 3 times per week and measured every 2 weeks up to day 14 to day 47; assay type: organism-based; details: in vivo, 336 h
[26] = Toxicity in SCID mouse xenografted with human PANC1 cells assessed as effect on BUN level at 1.16 mg/kg, ip dosed 3 times per week and measured every 2 weeks up to day 14 to day 47; assay type: organism-based; details: in vivo, 336 h

Structure (SMILES): Cc1ccccc1S(=O)(=O)N1[C@@H](c2ccc(Cl)cc2)C(C(=O)N[C@@H](Cc2ccccc2)C(N)=O)=C[C@H]1C(C)(C)C
- TGI (PANC-1 [1]): Active
- Activity [2]: Non-Toxic
- Activity [3]: Non-Toxic
- Activity (Mus musculus): Dose-dependent effect
- GI50 (Jurkat): 4.89 to 6.1 µM
- Activity [4]: Non-Toxic
- Activity [5]: Non-Toxic
- Activity [6]: Non-Toxic
- Activity [7]: Non-Toxic
- Activity [8]: Non-Toxic
- Activity (K562 [9]): Dose-dependent effect
- Activity [10]: Non-Toxic
- inhibition [11]: inactive
- Activity [12]: Non-Toxic
- inhibition (MCF7): Dose-dependent effect
- TGI (PANC-1 [13]): Active
- inhibition [14]: inactive
- CL/F [15]: 0.0173 mL/min
- inhibition [16]: inactive
- Activity [17]: Non-Toxic
- Activity [18]: Non-Toxic
- TGI (PANC-1 [19]): Active
- Activity (K562 [20]): Dose-dependent effect
- IC50 [21]: 1 to 7.7 µM
- Activity [22]: Non-Toxic
- Activity [23]: Non-Toxic
- inhibition (HEK293): Active
- inhibition [24]: inactive
- Activity [25]: Non-Toxic
- Activity [26]: Non-Toxic
